Experimental data from patent EP3590935A1, “FUSED IMIDAZOLIUM DERIVATIVES FOR USE IN THE TREATMENT OF COLORECTAL CANCER” (Deutsches Krebsforschungszentrum, Stiftung des öffentlichen …, priority 2018, dated 2020).
“Also recorded” adds a separate entry of the source.

Assays:
[1] = test system: CMS1 (HCT116, RKO, LoVo, SNU-C2A, LIM2405, WiDr) and CMS2 (CaCo2, HT55, CL14, SW403, GP2d, HCA24) cell lines; assay: Drug response curves (viability, AUC) in a panel of CMS1 and CMS2 cell lines; assay type: cell-based; settings: 72 h; 6 CMS1 and 6 CMS2 cell lines
Description: The present invention will now be further described in the following examples with reference to the accompanying figures and sequences, nevertheless, without being limited thereto. For the purposes of the present invention, all references as cited herein are incorporated by reference in their entireties. In the Figures: • Figure 1: Classification of colorectal cancer cell lines into consensus molecular subtypes (CMS). • (A) Workflow of data collection and subtype classification. Expression data of CRC cell lines were retrieved from six publicly available datasets. For each dataset, the CMS of every cancer cell line was separately identified using the R package 'CMSclassifier'. The CMS that was determined by the majority of datasets was then considered as the consensus. Finally, genomic data from CCLE and COSMIC were used to analyse CMS specific distributions of mutations and copy number alterations. • (B) Distribution of CRC cell lines to different CMS. […] Drug response data from a large screen performed by Iorio et al. was combined with the CMS classification of CRC cell lines to identify differential drug effects between CMS1 and CMS2 cell lines. […] Cell lines were treated with increasing drug concentrations for 72 h. […] The CMS1 cell lines RKO and HCT116 and the CMS2 cell lines HT55 and CaCo2 were treated with increasing concentrations of YM155. Induction of apoptosis was measured by FACS after staining with APC Annexin V and 7-AAD. […] Data are shown as mean value ± s.e.m. of 3-4 independent replicates. Cell lysates were additionally analyzed by PARP and CASP8 immunoblot. β-actin serves as a loading control. […] CMS1 and 2 cell lines were treated with increasing concentrations of the Bcl2 inhibitor navitoclax for 72 h. […] The CMS1 cells lines RKO and HCT116 were treated with different concentrations of YM155 for 48 h and the expression of survivin was measured by qPCR. […] (E) HCT116, RKO, HT55 and CaCo2 cells were treated with 10 nM of YM155 for 24 h, after which global expression was determined by microarray analysis. […]

[2] = test system: CMS1 and CMS2 CRC cell lines; assay: Analysis of public drug screen data (Iorio et al.): viability effect (AUC) in CMS-classified CRC cell lines; assay type: cell-based; settings: 8 CMS1 and 16 CMS2 CRC cell lines, 256 drugs, 2016
Description: The present invention will now be further described in the following examples with reference to the accompanying figures and sequences, nevertheless, without being limited thereto. For the purposes of the present invention, all references as cited herein are incorporated by reference in their entireties. In the Figures: • Figure 1: Classification of colorectal cancer cell lines into consensus molecular subtypes (CMS). • (A) Workflow of data collection and subtype classification. Expression data of CRC cell lines were retrieved from six publicly available datasets. For each dataset, the CMS of every cancer cell line was separately identified using the R package 'CMSclassifier'. The CMS that was determined by the majority of datasets was then considered as the consensus. […] Induction of apoptosis was measured by FACS after staining with APC Annexin V and 7-AAD. […] Cell lysates were additionally analyzed by PARP and CASP8 immunoblot. β-actin serves as a loading control. […] The CMS1 cells lines RKO and HCT116 were treated with different concentrations of YM155 for 48 h and the expression of survivin was measured by qPCR. […] (E) HCT116, RKO, HT55 and CaCo2 cells were treated with 10 nM of YM155 for 24 h, after which global expression was determined by microarray analysis. […]

PARP and CASP3 = assay: Immunoblot of PARP and caspase cleavage; assay type: cell-based; settings: cell lysates; CMS1 versus CMS2 cell lines
[3] = test system: CMS1 cell lines RKO and HCT116 and the CMS2 cell lines HT55 and CaCo2; assay: Apoptosis by flow cytometry (APC Annexin V and 7-AAD); assay type: cell-based; settings: increasing concentrations; CMS1 (RKO, HCT116) versus CMS2 (HT55, CaCo2)
Description: (§1) The present invention will now be further described in the following examples with reference to the accompanying figures and sequences, nevertheless, without being limited thereto. For the purposes of the present invention, all references as cited herein are incorporated by reference in their entireties. In the Figures: • Figure 1: Classification of colorectal cancer cell lines into consensus molecular subtypes (CMS). • (A) Workflow of data collection and subtype classification. Expression data of CRC cell lines were retrieved from six publicly available datasets. For each dataset, the CMS of every cancer cell line was separately identified using the R package 'CMSclassifier'. The CMS that was determined by the majority of datasets was then considered as the consensus. […] Heatmap showing the viability effect of YM155 on individual CMS1 and CMS2 cell lines within the screen (blue indicates a low viability as measured by the AUC). • (C-D) Validation of YM155 as a selective drug in CMS1 colorectal cancer. […] Induction of apoptosis was measured by FACS after staining with APC Annexin V and 7-AAD. […] Cell lysates were additionally analyzed by PARP and CASP8 immunoblot. β-actin serves as a loading control. […] The CMS1 cells lines RKO and HCT116 were treated with different concentrations of YM155 for 48 h and the expression of survivin was measured by qPCR. […]

[4] = test system: CMS1 cell lines HCT116 and RKO; assay: Long-term proliferation assay; assay type: cell-based; settings: CMS1 (HCT116, RKO) versus CMS2
[5] = test system: HCT116, RKO, HT55 and CaCo2 cells; assay: Global expression analysis by microarray after treatment; assay type: cell-based; settings: 10 nM, 24 h; CMS1 versus CMS2 cell lines
Description: as §1

solid tumours = settings: phase I and II trials, solid non-CRC tumours; cited from earlier work
survivin = assay: Survivin transcript (qPCR) and protein levels after treatment; assay type: cell-based; settings: four CRC cell lines
Description: as §1

HCT116 and HT55 = assay: Single knockout validation (SLC35F2, CCDC22, WASHC4, SNX17): drug-induced apoptosis by FACS; assay type: cell-based
Description: as §1

Structure (SMILES)	sensitivity of CMS1 versus CMS2 cell lines (dose response curves, comparison of AUCs) [1]	differential effect between CMS1 and 2 (viability effect, AUC) [2]	cleavage of PARP and CASP3 (PARP and CASP3)	induction of apoptosis (percentage of apoptotic cells) [3]	higher sensitivity of CMS1 cell lines [4]	global expression [5]	clinical benefit / efficacy (solid tumours)	tolerability / toxicity profile (solid tumours)	protein levels of survivin (survivin)	expression of survivin (transcript) (survivin; qPCR, 48 h)	effect of candidate gene knockout on drug-induced apoptosis (HCT116 and HT55; HCT116 (CMS1))	effect of candidate gene knockout on drug sensitivity (HCT116 and HT55; HT55 (CMS2))
O=c1[nH]cc(F)c(=O)[nH]1 [5-fluorouracil]	do not show a different viability effect in CMS1 and CMS2 colorectal cancer; also recorded: no difference in response rates could be detected between CMS1 and CMS2											
COCCn1c2c([n+](Cc3cnccn3)c1C)C(=O)c1ccccc1C2=O [YM155, 11-(2-methoxyethyl)-2-methyl-4,9-dioxo-3-(pyrazin-2-ylmethyl)-4,9-dihydro-1H-naphtho(2,3-d)imidazolium bromide]	significantly higher vulnerability of CMS1 colorectal cancer; also recorded: significantly more sensitive	selective effect on CMS1 cancer; also recorded: strongest differential effect between CMS1 and 2	detected at low concentrations in CMS1 but not CMS2 cell lines; also recorded: occurred at lower concentrations in RKO compared to CaCo2	Apoptosis can be measured at lower concentrations in CMS1 cell lines; also recorded: apoptosis was induced in CMS1 cell lines at significantly lower concentrations	approximately 100 fold	global expression was dynamically reshaped upon treatment in CMS1 cell lines	efficacy results are mixed; also recorded: failed to show clinical benefit; also recorded: no clinical benefit was observed	safe and good tolerability and favourable toxicity profile	protein levels of survivin are only reduced at high concentrations	expression of survivin is only repressed in RKO cells	All candidate genes lead to resistance to YM155 induced apoptosis at different concentrations in HCT116; also recorded: resistance against YM155 induced apoptosis in HCT116	only SLC35F2 knockout mediates resistance in HT55; also recorded: did not change YM155 sensitivity in HT55
CC1(C)CCC(c2ccc(Cl)cc2)=C(CN2CCN(c3ccc(C(=O)NS(=O)(=O)c4ccc(N[C@H](CCN5CCOCC5)CSc5ccccc5)c(S(=O)(=O)C(F)(F)F)c4)cc3)CC2)C1 [navitoclax]	does not show a significant difference between CMS1 and CMS2; also recorded: no difference in navitoclax sensitivity between CMS1 and CMS2 cell lines											
